Reference: patent US20240043427A1 (Gilead Sciences, Inc., priority 2020, published 2024)

Key:
CD73 [1] = biological target: T1, CD73 (Homo sapiens (Human), UniProt P21589); assay type: biochemical; conditions: 1 mM NaH2PO4 in enzyme buffer, CD73 0.3 nM, AMP 15 uM
CD73 [2] = biological target: T1, CD73; test: MDA-MB-231 Cell Based CD73 Activity Assay (DMEM); conditions: MDA-MB-231-GFP cells, DMEM medium with 10% human plasma, 200 uM AMP

T1 sequence (P21589 27-574): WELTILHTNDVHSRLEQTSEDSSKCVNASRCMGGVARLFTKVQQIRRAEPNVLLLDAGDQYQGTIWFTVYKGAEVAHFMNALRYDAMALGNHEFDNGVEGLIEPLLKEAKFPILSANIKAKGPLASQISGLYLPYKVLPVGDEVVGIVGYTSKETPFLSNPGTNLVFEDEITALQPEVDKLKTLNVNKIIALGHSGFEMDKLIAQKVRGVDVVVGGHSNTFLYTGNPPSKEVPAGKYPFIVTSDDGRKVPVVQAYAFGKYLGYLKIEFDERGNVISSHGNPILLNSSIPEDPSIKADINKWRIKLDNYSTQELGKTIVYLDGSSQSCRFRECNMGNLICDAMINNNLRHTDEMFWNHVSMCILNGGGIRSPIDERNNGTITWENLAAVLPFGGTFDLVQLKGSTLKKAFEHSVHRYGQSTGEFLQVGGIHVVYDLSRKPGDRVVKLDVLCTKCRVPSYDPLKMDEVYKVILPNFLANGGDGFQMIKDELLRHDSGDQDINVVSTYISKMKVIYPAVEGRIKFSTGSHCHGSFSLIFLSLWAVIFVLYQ

CC(C)NC(=O)C(F)(F)C1CCN(c2cc(-c3c[nH]c(=O)[nH]c3=O)nn3ccnc23)C1 (stereo not drawn) [Example 662, 2-(1-(6-(2,4-dioxo-1,2,3,4-tetrahydropyrimidin-5-yl)imidazo[1,2-b]pyridazin-8-yl)pyrrolidin-3-yl)-2,2-difluoro-N-isopropylacetamide]
IC50 (CD73 [1]): 19.2 nM | EC50 (CD73 [2]): 88.6 nM

CC(C)n1cc(CC2CCN(c3cc(-c4c[nH]c(=O)[nH]c4=O)nn4ccnc34)C2)nn1 (stereo not drawn) [Example 663, 5-(8-(3-((1-isopropyl-1H-1,2,3-triazol-4-yl)methyl)pyrrolidin-1-yl)imidazo[1,2-b]pyridazin-6-yl)pyrimidine-2,4(1H,3H)-dione]
IC50 (CD73 [1]): 24.5 nM | EC50 (CD73 [2]): 160 nM

O=C(NC1(C(F)(F)F)CC1)O[C@H]1CN(c2cc(-c3c[nH]c(=O)[nH]c3=O)nn3c(F)cnc23)CC1(F)F [Example 664, (S)-1-(6-(2,4-dioxo-1,2,3,4-tetrahydropyrimidin-5-yl)-3-fluoroimidazo[1,2-b]pyridazin-8-yl)-4,4-difluoropyrrolidin-3-yl (1-(trifluoromethyl)cyclopropyl)carbamate]
IC50 (CD73 [1]): 0.92 nM | EC50 (CD73 [2]): 0.21 nM

O=C(NC12CC(C(F)(F)F)(C1)C2)O[C@H]1CN(c2cc(-c3c[nH]c(=O)[nH]c3=O)nn3c(F)cnc23)CC1(F)F [Example 665, (S)-1-(6-(2,4-dioxo-1,2,3,4-tetrahydropyrimidin-5-yl)-3-fluoroimidazo[1,2-b]pyridazin-8-yl)-4,4-difluoropyrrolidin-3-yl (3-(trifluoromethyl)bicyclo[1.1.1]pentan-1-yl)carbamate]
IC50 (CD73 [1]): 1.46 nM | EC50 (CD73 [2]): 2.79 nM

O=c1[nH]cc(-c2cc(N3C[C@H](Oc4cc(C(F)(F)F)cnn4)C(F)(F)C3)c3ncc(F)n3n2)c(=O)[nH]1 [Example 666, (S)-5-(8-(3,3-difluoro-4-((5-(trifluoromethyl)pyridazin-3-yl)oxy)pyrrolidin-1-yl)-3-fluoroimidazo[1,2-b]pyridazin-6-yl)pyrimidine-2,4(1H,3H)-dione]
IC50 (CD73 [1]): 1.8 nM | EC50 (CD73 [2]): 2.8 nM

CC(C)CNc1cc(-c2c[nH]c(=O)[nH]c2=O)nn2ccnc12 [Example 667, 5-(8-(isobutylamino)imidazo[1,2-b]pyridazin-6-yl)pyrimidine-2,4(1H,3H)-dione]
IC50 (CD73 [1]): 100 nM | EC50 (CD73 [2]): 414 nM

CC(C)(C)CNc1cc(-c2c[nH]c(=O)[nH]c2=O)nn2ccnc12 [Example 668, 5-(8-(neopentylamino)imidazo[1,2-b]pyridazin-6-yl)pyrimidine-2,4(1H,3H)-dione]
IC50 (CD73 [1]): > 250 nM | EC50 (CD73 [2]): 857 nM

COCCNc1cc(-c2c[nH]c(=O)[nH]c2=O)nn2ccnc12 [Example 669, 5-(8-((2-methoxyethyl)amino)imidazo[1,2-b]pyridazin-6-yl)pyrimidine-2,4(1H,3H)-dione]
IC50 (CD73 [1]): > 250 nM | EC50 (CD73 [2]): 690 nM

O=c1[nH]cc(-c2cc(NCC(F)F)c3nccn3n2)c(=O)[nH]1 [Example 670, 5-(8-((2,2-difluoroethyl)amino)imidazo[1,2-b]pyridazin-6-yl)pyrimidine-2,4(1H,3H)-dione]
IC50 (CD73 [1]): 154 nM | EC50 (CD73 [2]): 573 nM

COc1ccc(CN(CC(F)F)c2cc(-c3c[nH]c(=O)[nH]c3=O)nn3ccnc23)cc1 [Example 671, 5-(8-((2,2-difluoroethyl)(4-methoxybenzyl)amino)imidazo[1,2-b]pyridazin-6-yl)pyrimidine-2,4(1H,3H)-dione]
IC50 (CD73 [1]): > 250 nM | EC50 (CD73 [2]): 1620 nM

O=c1[nH]cc(-c2cc(NCC(F)(F)F)c3nccn3n2)c(=O)[nH]1 [Example 672, 5-(8-((2,2,2-trifluoroethyl)amino)imidazo[1,2-b]pyridazin-6-yl)pyrimidine-2,4(1H,3H)-dione]
IC50 (CD73 [1]): 148 nM | EC50 (CD73 [2]): 383 nM

O=c1[nH]cc(-c2cc(OCCc3ccccc3)c3nccn3n2)c(=O)[nH]1 [Example 673, 5-(8-phenethoxyimidazo[1,2-b]pyridazin-6-yl)pyrimidine-2,4(1H,3H)-dione]
IC50 (CD73 [1]): 5.46 nM | EC50 (CD73 [2]): 31.6 nM

CC(COc1cc(-c2c[nH]c(=O)[nH]c2=O)nn2ccnc12)c1ccccc1 (stereo not drawn) [Example 674, 5-(8-(2-phenylpropoxy)imidazo[1,2-b]pyridazin-6-yl)pyrimidine-2,4(1H,3H)-dione]
IC50 (CD73 [1]): 16.3 nM | EC50 (CD73 [2]): 48.1 nM

O=c1[nH]cc(-c2cc(OCC(F)(F)F)c3nccn3n2)c(=O)[nH]1 [Example 675, 5-(8-(2,2,2-trifluoroethoxy)imidazo[1,2-b]pyridazin-6-yl)pyrimidine-2,4(1H,3H)-dione]
IC50 (CD73 [1]): 49.5 nM | EC50 (CD73 [2]): 78.7 nM

CC(C)(COc1cc(-c2c[nH]c(=O)[nH]c2=O)nn2ccnc12)C(F)(F)F [Example 676, 5-(8-(3,3,3-trifluoro-2,2-dimethylpropoxy)imidazo[1,2-b]pyridazin-6-yl)pyrimidine-2,4(1H,3H)-dione]
IC50 (CD73 [1]): 141 nM | EC50 (CD73 [2]): 429 nM

CC(F)(F)COc1cc(-c2c[nH]c(=O)[nH]c2=O)nn2ccnc12 [Example 677, 5-(8-(2,2-difluoropropoxy)imidazo[1,2-b]pyridazin-6-yl)pyrimidine-2,4(1H,3H)-dione]
IC50 (CD73 [1]): 12.2 nM | EC50 (CD73 [2]): 22.2 nM

CC(C)COc1cc(-c2c[nH]c(=O)[nH]c2=O)nn2ccnc12 [Example 678, 5-(8-isobutoxyimidazo[1,2-b]pyridazin-6-yl)pyrimidine-2,4(1H,3H)-dione]
IC50 (CD73 [1]): 23.9 nM | EC50 (CD73 [2]): 38.8 nM

CC(C)C(C)Oc1cc(-c2c[nH]c(=O)[nH]c2=O)nn2ccnc12 (stereo not drawn) [Example 680, 5-(8-((3-methylbutan-2-yl)oxy)imidazo[1,2-b]pyridazin-6-yl)pyrimidine-2,4(1H,3H)-dione]
IC50 (CD73 [1]): 225 nM | EC50 (CD73 [2]): 454 nM

O=c1[nH]cc(-c2cc(OCCC(F)(F)F)c3nccn3n2)c(=O)[nH]1 [Example 681, 5-(8-(3,3,3-trifluoropropoxy)imidazo[1,2-b]pyridazin-6-yl)pyrimidine-2,4(1H,3H)-dione]
IC50 (CD73 [1]): 61.3 nM | EC50 (CD73 [2]): 94 nM

O=c1[nH]cc(-c2cc(OCC(F)(F)c3ccccc3)c3nccn3n2)c(=O)[nH]1 [Example 682, 5-(8-(2,2-difluoro-2-phenylethoxy)imidazo[1,2-b]pyridazin-6-yl)pyrimidine-2,4(1H,3H)-dione]
IC50 (CD73 [1]): 1.59 nM | EC50 (CD73 [2]): 17.9 nM

C#CC1(C)CCN(c2cc(-c3c[nH]c(=O)[nH]c3=O)nn3ccnc23)C1 (stereo not drawn) [Example 683, 5-(8-(3-ethynyl-3-methylpyrrolidin-1-yl)imidazo[1,2-b]pyridazin-6-yl)pyrimidine-2,4(1H,3H)-dione]
IC50 (CD73 [1]): 1.31 nM | EC50 (CD73 [2]): 10.9 nM

C#CC1CCN(c2cc(-c3c[nH]c(=O)[nH]c3=O)nn3ccnc23)C1 (stereo not drawn) [Example 684, 5-(8-(3-ethynylpyrrolidin-1-yl)imidazo[1,2-b]pyridazin-6-yl)pyrimidine-2,4(1H,3H)-dione]
IC50 (CD73 [1]): 1.29 nM | EC50 (CD73 [2]): 5.84 nM

CC(C)(O)C#Cc1cc(-c2c[nH]c(=O)[nH]c2=O)nn2ccnc12 [Example 685, 5-(8-(3-hydroxy-3-methylbut-1-yn-1-yl)imidazo[1,2-b]pyridazin-6-yl)pyrimidine-2,4(1H,3H)-dione]
IC50 (CD73 [1]): > 250 nM | EC50 (CD73 [2]): 551 nM

CC(C)(C)C#Cc1cc(-c2c[nH]c(=O)[nH]c2=O)nn2ccnc12 [Example 686, 5-(8-(3,3-dimethylbut-1-yn-1-yl)imidazo[1,2-b]pyridazin-6-yl)pyrimidine-2,4(1H,3H)-dione]
IC50 (CD73 [1]): 45 nM | EC50 (CD73 [2]): 285 nM

O=c1[nH]cc(-c2cc(OCC(F)(F)CO)c3nccn3n2)c(=O)[nH]1 [Example 687, 5-(8-(2,2-difluoro-3-hydroxypropoxy)imidazo[1,2-b]pyridazin-6-yl)pyrimidine-2,4(1H,3H)-dione]
IC50 (CD73 [1]): 8.72 nM | EC50 (CD73 [2]): 53.5 nM

CCC(F)(F)COc1cc(-c2c[nH]c(=O)[nH]c2=O)nn2ccnc12 [Example 688, 5-(8-(2,2-difluorobutoxy)imidazo[1,2-b]pyridazin-6-yl)pyrimidine-2,4(1H,3H)-dione]
IC50 (CD73 [1]): 7.02 nM | EC50 (CD73 [2]): 34.2 nM

O=c1[nH]cc(-c2cc(OCC(F)(F)C3CC3)c3nccn3n2)c(=O)[nH]1 [Example 689, 5-(8-(2-cyclopropyl-2,2-difluoroethoxy)imidazo[1,2-b]pyridazin-6-yl)pyrimidine-2,4(1H,3H)-dione]
IC50 (CD73 [1]): 3.02 nM | EC50 (CD73 [2]): 10.6 nM

O=c1[nH]cc(-c2cc(OCC(F)(F)C(F)(F)F)c3nccn3n2)c(=O)[nH]1 [Example 690, 5-(8-(2,2,3,3,3-pentafluoropropoxy)imidazo[1,2-b]pyridazin-6-yl)pyrimidine-2,4(1H,3H)-dione]
IC50 (CD73 [1]): 12.7 nM | EC50 (CD73 [2]): 21.9 nM

C[C@H](COc1cc(-c2c[nH]c(=O)[nH]c2=O)nn2ccnc12)c1ccccc1 [Example 691, (S)-5-(8-(2-phenylpropoxy)imidazo[1,2-b]pyridazin-6-yl)pyrimidine-2,4(1H,3H)-dione]
IC50 (CD73 [1]): 43.3 nM | EC50 (CD73 [2]): 349 nM

O=c1[nH]cc(-c2cc(OCC(F)(F)c3ccccn3)c3nccn3n2)c(=O)[nH]1 [Example 692, 5-(8-(2,2-difluoro-2-(pyridin-2-yl)ethoxy)imidazo[1,2-b]pyridazin-6-yl)pyrimidine-2,4(1H,3H)-dione]
IC50 (CD73 [1]): 3.2 nM | EC50 (CD73 [2]): 23.1 nM

Cn1ccnc1C(F)(F)COc1cc(-c2c[nH]c(=O)[nH]c2=O)nn2ccnc12 [Example 693, 5-(8-(2,2-difluoro-2-(1-methyl-1H-imidazol-2-yl)ethoxy)imidazo[1,2-b]pyridazin-6-yl)pyrimidine-2,4(1H,3H)-dione]
IC50 (CD73 [1]): 9.78 nM | EC50 (CD73 [2]): 49.4 nM

CC(C)NC(=O)OCC(F)(F)COc1cc(-c2c[nH]c(=O)[nH]c2=O)nn2ccnc12 [Example 694, 3-((6-(2,4-dioxo-1,2,3,4-tetrahydropyrimidin-5-yl)imidazo[1,2-b]pyridazin-8-yl)oxy)-2,2-difluoropropyl isopropylcarbamate]
IC50 (CD73 [1]): 0.61 nM | EC50 (CD73 [2]): 0.23 nM

O=c1[nH]cc(-c2cc(OCC(F)(F)COc3ccccn3)c3nccn3n2)c(=O)[nH]1 [Example 695, 5-(8-(2,2-difluoro-3-(pyridin-2-yloxy)propoxy)imidazo[1,2-b]pyridazin-6-yl)pyrimidine-2,4(1H,3H)-dione]
IC50 (CD73 [1]): 1.82 nM | EC50 (CD73 [2]): 17.4 nM
